Measured values: patent publication US4017611A, “Control of insects with 3-hydroxymethacrylic acid methyl ester dimethylthionophosphate” (priority 1970, dated 1977)
Where two headings read alike, the source gives them in different places.

Experiments:
[1] = tested on: one day old houseflies (Musca domestica); test: Ingestion test with one day old houseflies; format: in vivo; conditions: read-out: % flies killed; for mortality at 0.4 ppm: 0.4 ppm in 30% sugar water; for mortality at 0.8 ppm: 0.8 ppm in 30% sugar water; for mortality at 1.5 ppm: 1.5 ppm in 30% sugar water; for mortality at 3 ppm: 3 ppm in 30% sugar water; for mortality at 6 ppm: 6 ppm in 30% sugar water; for mortality at 12 ppm: 12 ppm in 30% sugar water; for mortality at 25 ppm: 25 ppm in 30% sugar water; for mortality at 50 ppm: 50 ppm in 30% sugar water; for mortality at 100 ppm: 100 ppm in 30% sugar water
Protocol: Dilution series were manufactured with water. As solvent for the test preparations and similarly as a nutrition agent for the flies, 30% sugar water was used which had been coloured with chlorantin light red (as an attractant). The dilutions were tested with one day old houseflies. The 1, 2 and 4 hour controls enabled the speed of action to be determined. By means of the 24 hour control the limit concentration (action strength) could also be determined.

[2] = tested on: Sitophilus granarius; test: Durability (disinfection) test on wheat, grain weevil; format: in vivo; conditions: 168 h, read-out: % animals dead after one week exposure
From the text: (§1) Wheat was shaken up with 5% dusting agent and then mixed again repeatedly with untreated wheat at half the poison concentration. In this way, a dilution series with concentrations of 50 - 25 - 12 - 6 - 3 - 1.5 ppm was obtained.
(§2) Since the test is repeated once per month, the desired information is obtained concerning the residual effect. In the test, the important pests in storage protection were chosen, viz, the grain weevil (Sitophilus granarius) - lesser grain borer (Rhizopertha dominica) and the larvae of the Khapra beetle (Trogoderma granarium), which are very resistant to insecticides. 20 test insects were tested per concentration and the results are expressed in the following table.

[3] = tested on: adult houseflies; test: Gas action against adult houseflies; format: in vivo, Musca domestica (housefly); conditions: 10 mg active substance, 2 liter glass cylinder
Protocol: Using a pipette 10 mg of active substance were placed on a watch glass which was then covered with a wire mesh and placed in a 2 liter glass cylinder. Immediately thereafter 30 houseflies were introduced into the container which was then sealed.
A comparative test between compound 1 and PHOSDRIN (Registered Trade Mark) carried out according to this method gave the following mortality periods in minutes for 10%, 50% and 100% kill of the test animals.

[4] = tested on: Trogoderma granarium (L); test: Durability (disinfection) test on wheat, larvae of the Khapra beetle; format: in vivo; conditions: 168 h, read-out: % animals dead after one week exposure
From the text: as §1, §2

[5] = tested on: Sit. Granarius; test: Diffusion action in wheat (gas phase between wheat grains); format: in vivo; conditions: Sitophilus granarius, 168 h, 50 ppm treated wheat layer, read-out: Mortality in % after 7 days exposure time
From the text: A plexiglass box was divided by means of wire grids into ten vertical layers each 1 cm thick. Each compartment was filled with wheat grains. The first compartment contained wheat grains which had been treated with 50 ppm active agent (5% dusting agent). The remainder of the compartment contained untreated wheat. All the compartments were then supplied with grain weevils. The mortality was noted after 7 days exposure time and the results are expressed in the following table. Diffusion of active substance in gas phase between the wheat grains

[6] = tested on: Rhizopertha dominica; test: Durability (disinfection) test on wheat, lesser grain borer; format: in vivo; conditions: Rhyzopertha dominica, 168 h, read-out: % animals dead after one week exposure
From the text: as §1, §2

[7] = Acute oral toxicity (warm blooded toxicity) in rats; conditions: rat, in vivo, po

COC(=O)C(C)=COP(=S)(OC)OC [Compound I, 3-hydroxymethacrylic acid methyl ester dimethylthionophosphate]
mortality at 0.4 ppm ([1]; 1 hour): 0% | mortality at 0.4 ppm ([1]; 2 hours): 0% | mortality at 0.4 ppm ([1]; 4 hours): 0% | mortality at 0.4 ppm ([1]; 24 hours): 0% | mortality at 0.8 ppm ([1]; 1 hour): 0% | mortality at 0.8 ppm ([1]; 2 hours): 0% | mortality at 0.8 ppm ([1]; 4 hours): 0% | mortality at 0.8 ppm ([1]; 24 hours): 0% | mortality at 1.5 ppm ([1]; 1 hour): 0% | mortality at 1.5 ppm ([1]; 2 hours): 0% | mortality at 1.5 ppm ([1]; 4 hours): 0% | mortality at 1.5 ppm ([1]; 24 hours): 10% | mortality at 3 ppm ([1]; 1 hour): 10% | mortality at 3 ppm ([1]; 2 hours): 20% | mortality at 3 ppm ([1]; 4 hours): 50% | mortality at 3 ppm ([1]; 24 hours): 90% | mortality at 6 ppm ([1]; 1 hour): 30% | mortality at 6 ppm ([1]; 2 hours): 40% | mortality at 6 ppm ([1]; 4 hours): 100% | mortality at 6 ppm ([1]; 24 hours): 100% | mortality at 12 ppm ([1]; 1 hour): 40% | mortality at 12 ppm ([1]; 2 hours): 70% | mortality at 12 ppm ([1]; 4 hours): 100% | mortality at 12 ppm ([1]; 24 hours): 100% | mortality at 25 ppm ([1]; 1 hour): 40% | mortality at 25 ppm ([1]; 2 hours): 70% | mortality at 25 ppm ([1]; 4 hours): 100% | mortality at 25 ppm ([1]; 24 hours): 100% | mortality at 50 ppm ([1]; 1 hour): 60% | mortality at 50 ppm ([1]; 2 hours): 90% | mortality at 50 ppm ([1]; 4 hours): 100% | mortality at 50 ppm ([1]; 24 hours): 100% | mortality at 100 ppm ([1]; 1 hour): 100% | mortality at 100 ppm ([1]; 2 hours): 100% | mortality at 100 ppm ([1]; 4 hours): 100% | mortality at 100 ppm ([1]; 24 hours): 100% | mortality at 1.5 ppm ([2]; wheat fresh): 100% | mortality at 1.5 ppm ([2]; wheat stored 1 month): 90% | mortality at 1.5 ppm ([2]; wheat stored 2 months): 100% | mortality at 1.5 ppm ([2]; wheat stored 3 months): 70% | mortality at 3 ppm ([2]; wheat fresh): 100% | mortality at 3 ppm ([2]; wheat stored 1 month): 100% | mortality at 3 ppm ([2]; wheat stored 2 months): 100% | mortality at 3 ppm ([2]; wheat stored 3 months): 95% | mortality at 6 ppm ([2]; wheat fresh): 100% | mortality at 6 ppm ([2]; wheat stored 1 month): 100% | mortality at 6 ppm ([2]; wheat stored 2 months): 100% | mortality at 6 ppm ([2]; wheat stored 3 months): 100% | mortality at 12 ppm ([2]; wheat fresh): 100% | mortality at 12 ppm ([2]; wheat stored 1 month): 100% | mortality at 12 ppm ([2]; wheat stored 2 months): 100% | mortality at 12 ppm ([2]; wheat stored 3 months): 100% | mortality at 25 ppm ([2]; wheat fresh): 100% | mortality at 25 ppm ([2]; wheat stored 1 month): 100% | mortality at 25 ppm ([2]; wheat stored 2 months): 100% | mortality at 25 ppm ([2]; wheat stored 3 months): 100% | mortality at 50 ppm ([2]; wheat fresh): 100% | mortality at 50 ppm ([2]; wheat stored 1 month): 100% | mortality at 50 ppm ([2]; wheat stored 2 months): 100% | mortality at 50 ppm ([2]; wheat stored 3 months): 100% | Mortality time for 10% of the houseflies ([3]; 10% kill): 5 min | Mortality time for 50% of the houseflies ([3]; 50% kill): 6 min | Mortality time for 100% of the houseflies ([3]; 100% kill): 25 min | mortality at 1.5 ppm ([4]; wheat fresh): 90% | mortality at 1.5 ppm ([4]; wheat stored 1 month): 0% | mortality at 1.5 ppm ([4]; wheat stored 2 months): 0% | mortality at 1.5 ppm ([4]; wheat stored 3 months): 0% | mortality at 3 ppm ([4]; wheat fresh): 95% | mortality at 3 ppm ([4]; wheat stored 1 month): 10% | mortality at 3 ppm ([4]; wheat stored 2 months): 0% | mortality at 3 ppm ([4]; wheat stored 3 months): 0% | mortality at 6 ppm ([4]; wheat fresh): 100% | mortality at 6 ppm ([4]; wheat stored 1 month): 85% | mortality at 6 ppm ([4]; wheat stored 2 months): 30% | mortality at 6 ppm ([4]; wheat stored 3 months): 10% | mortality at 12 ppm ([4]; wheat fresh): 100% | mortality at 12 ppm ([4]; wheat stored 1 month): 95% | mortality at 12 ppm ([4]; wheat stored 2 months): 85% | mortality at 12 ppm ([4]; wheat stored 3 months): 55% | mortality at 25 ppm ([4]; wheat fresh): 100% | mortality at 25 ppm ([4]; wheat stored 1 month): 100% | mortality at 25 ppm ([4]; wheat stored 2 months): 100% | mortality at 25 ppm ([4]; wheat stored 3 months): 100% | mortality at 50 ppm ([4]; wheat fresh): 100% | mortality at 50 ppm ([4]; wheat stored 1 month): 100% | mortality at 50 ppm ([4]; wheat stored 2 months): 100% | mortality at 50 ppm ([4]; wheat stored 3 months): 100% | mortality at 50 ppm ([5]; distance 1 cm): 100% | mortality at 50 ppm ([5]; distance 2 cm): 100% | mortality at 50 ppm ([5]; distance 3 cm): 100% | mortality at 50 ppm ([5]; distance 4 cm): 100% | mortality at 50 ppm ([5]; distance 5 cm): 90% | mortality at 50 ppm ([5]; distance 6 cm): 15% | mortality at 1.5 ppm ([6]; wheat fresh): 20% | mortality at 1.5 ppm ([6]; wheat stored 1 month): 0% | mortality at 1.5 ppm ([6]; wheat stored 2 months): 15% | mortality at 1.5 ppm ([6]; wheat stored 3 months): 0% | mortality at 3 ppm ([6]; wheat fresh): 90% | mortality at 3 ppm ([6]; wheat stored 1 month): 5% | mortality at 3 ppm ([6]; wheat stored 2 months): 10% | mortality at 3 ppm ([6]; wheat stored 3 months): 15% | mortality at 6 ppm ([6]; wheat fresh): 100% | mortality at 6 ppm ([6]; wheat stored 1 month): 60% | mortality at 6 ppm ([6]; wheat stored 2 months): 40% | mortality at 6 ppm ([6]; wheat stored 3 months): 15% | mortality at 12 ppm ([6]; wheat fresh): 100% | mortality at 12 ppm ([6]; wheat stored 1 month): 85% | mortality at 12 ppm ([6]; wheat stored 2 months): 70% | mortality at 12 ppm ([6]; wheat stored 3 months): 35% | mortality at 25 ppm ([6]; wheat fresh): 100% | mortality at 25 ppm ([6]; wheat stored 1 month): 100% | mortality at 25 ppm ([6]; wheat stored 2 months): 80% | mortality at 25 ppm ([6]; wheat stored 3 months): 75% | mortality at 50 ppm ([6]; wheat fresh): 100% | mortality at 50 ppm ([6]; wheat stored 1 month): 100% | mortality at 50 ppm ([6]; wheat stored 2 months): 100% | mortality at 50 ppm ([6]; wheat stored 3 months): 100% | LD50 [7]: 500 mg/kg
